Data taken from patent US20240209092A1, “COMBINATION THERAPIES FOR TREATING CANCER” (ADAGENE INC., priority 2021, published 2024).

What was measured:
[1] = test system: EMT6 murine breast cancer cells; experiment: EMT6 cancer model, TY21580 with Olaparib; type: in vivo, mice; conditions: Olaparib 50 mg/kg p.o. daily for 21 doses
Method: Mice were inoculated subcutaneously with EMT6 murine breast cancer cells. […] Intraperitoneal administration of TY21580 at 0.1 mg/kg was initiated on a biweekly schedule. Olaparib at 50 mg/kg was p.o. dosed daily for 21 doses.

[2] = test system: CT26 cancer model; experiment: CT26 cancer model, TY21580 with Fruquintinib; type: in vivo, mice
Method: Dosing started when average tumor volume reached about 120 mm^3 (n=8 per group). […] Fruquintinib at 5 mg/kg was p.o. dosed daily for 3 weeks.

[3] = test system: Renca murine kidney cancer cells; experiment: Renca cancer model, TY21580 with Anlotinib; type: in vivo, mice
Method: Mice were inoculated subcutaneously with Renca murine kidney cancer cells. […] Anlotinib at 3 mg/kg was p.o. dosed daily for 17 doses.

[4] = test system: CT26 murine colon tumor cells; experiment: CT26 colon cancer model, ADG106 with TY21580 (FIGS. 12A-12B); type: in vivo, mice; conditions: Day 19; ADG106 0.2 mg/kg and/or TY21580 0.2 mg/kg, IP twice a week
Method: FIGS. 12A-12B provide the results of ADG106 administered in combination with TY21580 in the mouse CT26 colon cancer model to assess in vivo antitumor efficacy of ADG106 and TY21580 combination treatment. Mice were inoculated subcutaneously with CT26 murine colon tumor cells. […] These groups received either 1 mg/kg isotype control, 0.2 mg/kg ADG106, 0.2 or 1 mg/kg TY21580, or a combination of ADG106 and TY21580 at the same doses by IP injection. All antibodies were dosed twice a week.

[5] = test system: 4T1 murine breast cancer cells; experiment: 4T1 cancer model, TY22404 with ADG106; type: in vivo, mice; conditions: Day 33; 5 mg/kg TY22404 and/or ADG106 i.p. biweekly, four doses
Method: Mice were inoculated subcutaneously with 4T1 murine breast cancer cells. […] Intraperitoneal administration of Vehicle, 5 mg/kg TY22404 or ADG106, or combination of these two agents, was initiated on a biweekly schedule for four doses.

[6] = test system: A20 murine B lymphoma cells; experiment: A20 cancer model, ADG106 with TY21580; type: in vivo, mice; conditions: ADG106 5 mg/kg, TY21580 0.5 mg/kg, i.p. biweekly, 4 doses
Method: FIGS. 18A-18B provide the results of ADG106 administered in combination with TY21580 in the A20 cancer model to assess in vivo antitumor efficacy of ADG106 and TY21580 combination treatment. Mice were inoculated subcutaneously with A20 murine B lymphoma cells. […] Intraperitoneal administration of 5 mg/kg ADG106 or 0.5 mg/kg TY21580, or combination of these two agents, was initiated on a biweekly schedule for 4 doses.

[7] = test system: B16F10 murine melanoma tumor cells; experiment: B16F10 melanoma model, ADG106 with TY21580 (FIG. 17); type: in vivo, mice; conditions: 5 mg/kg each, IP twice a week from tumor inoculation
Method: All antibodies were dosed twice a week.

[8] = test system: MC38 murine colon tumor cells; experiment: MC38 cancer model, TY22404 with ADG106; type: in vivo, mice; conditions: Day 27 post tumor cell inoculation; 5 mg/kg each, i.p. biweekly four doses
Method: FIG. 25 provides the results of TY22404 administered in combination with ADG106 antibody in the MC38 cancer model to assess in vivo antitumor efficacy of the combination treatment. Mice were inoculated subcutaneously with MC38 murine colon tumor cells. […] Intraperitoneal administration of test antibodies was initiated on a biweekly schedule for four doses. Tumor growth inhibition (TGI) relative to the isotype control group was evaluated on Day 27 post tumor cell inoculation.

[9] = test system: MC38 murine colon tumor cells; experiment: MC38 colon cancer model, ADG106 with TY21580 (FIGS. 13A-13B); type: in vivo, mice; conditions: Day 33; ADG106 10 mg/kg alone
Method: Mice were inoculated subcutaneously with MC38 murine colon tumor cells. […] These groups received either 10 mg/kg isotype control, 10 mg/kg ADG106, 0.2 or 2 mg/kg TY21580, or a combination of ADG106 and TY21580 at the same doses by IP injection. All antibodies were dosed twice a week for 4 weeks. […] No adverse effects were observed on body weights with these treatments.

[10] = test system: 4T1 breast cancer cells; experiment: 4T1 breast cancer model, ADG106 with TY21580; type: in vivo, BALB/c mice; conditions: TY21580 2 mg/kg, ADG106 5 mg/kg, i.p. twice a week for 2 weeks
[11] = test system: EMT6 murine breast cancer cells; experiment: EMT6 cancer model, ADG106 with TY21580; type: in vivo, mice; conditions: ADG106 0.5 mg/kg, TY21580 0.1 mg/kg, i.p. biweekly
Method: FIGS. 19A-19B provide the results of ADG106 administered in combination with TY21580 in the EMT6 cancer model to assess in vivo antitumor efficacy of ADG106 and TY21580 combination treatment. Mice were inoculated subcutaneously with EMT6 murine breast cancer cells. […] Intraperitoneal administration of 0.5 mg/kg ADG106 or 0.1 mg/kg TY21580, or combination of these two agents, was initiated on a biweekly schedule.

[12] = test system: 4T1 cancer model; conditions: Day 35; TY21580 2 mg/kg i.p. biweekly four doses, Docetaxel 10 mg/kg i.v. weekly 3 doses
Method: Dosing started when average tumor volume reached about 90 mm^3 (n=8 per group). When the mean tumor volume reached 90 mm^3, the tumor bearing mice were randomized into different treatment groups of eight mice each. […] Docetaxel at 10 mg/kg was i.v. dosed weekly for 3 doses.

Compound: O=C(c1cc(Cc2n[nH]c(=O)c3ccccc23)ccc1F)N1CCN(C(=O)C2CC2)CC1 [Olaparib, reference compound]
- antitumor effect vs vehicle control, in words [1]: no significant antitumor effect

Compound: CNC(=O)c1c(C)oc2cc(Oc3ncnc4cc(OC)c(OC)cc34)ccc12 [Fruquintinib, reference compound]
- antitumor activity vs isotype control, in words ([2]; TY21580 0.1 mg/kg i.p. biweekly four doses, Fruquintinib 5 mg/kg p.o. daily for 3 weeks): partial antitumor activity
- complete response (CR) ([2]; TY21580 0.1 mg/kg, Fruquintinib 5 mg/kg, n=8 per group): no complete response

Compound: COc1cc2c(Oc3ccc4[nH]c(C)cc4c3F)ccnc2cc1OCC1(N)CC1 [Anlotinib]
- TGI vs vehicle control ([3]; Day 29, Anlotinib 3 mg/kg p.o. daily for 17 doses): 93%
- antitumor effect vs vehicle control, in words ([3]; TY21580 5 mg/kg i.p. biweekly four doses, Anlotinib 3 mg/kg p.o. daily): strong antitumor activity

Compound: ADG106: anti-CD137 antibody, heavy chain SEQ ID NO: 240, light chain SEQ ID NO: 241
- TGI vs isotype control [4]: 47%
- TGI vs vehicle control [5]: 10%
- antitumor activity vs vehicle control, in words [6]: partial antitumor activity
- antitumor activity vs isotype control, in words [7]: did not inhibit tumor growth
- Tumor growth inhibition (TGI) relative to isotype control [8]: 21%
- tumor growth inhibition, in words [9]: did not inhibit tumor growth
- anti-tumor activity vs isotype control, in words [10]: showed anti-tumor activity
- antitumor activity vs vehicle control, in words [11]: significant antitumor activity

Compound: CC(=O)O[C@@]12CO[C@@H]1C[C@H](O)[C@@]1(C)C(=O)[C@H](O)C3=C(C)[C@@H](OC(=O)[C@H](O)[C@@H](NC(=O)OC(C)(C)C)c4ccccc4)C[C@@](O)([C@@H](OC(=O)c4ccccc4)[C@H]21)C3(C)C [Docetaxel, reference compound]
- TGI vs vehicle control [12]: 38.3%
